Article PMC5358098 (ACS chemical neuroscience, 2016)
Read-outs that look alike come from different tables or passages of the source.

Columns and labels:
[1] = molecular target: T1, CB1R (Homo sapiens, UniProt P21554); format: cell-based; settings: HEK293A, 30 min
[2] = molecular target: T1, CB1R; format: cell-based; settings: Neuro2a, 30 min
[3] = molecular target: T1, CB1R; experiment: cell-based; format: cell-based
[4] = molecular target: T2, CB1R (Mus musculus, UniProt P47746); format: cell-based; settings: Neuro2a, 10 min
T2 sequence (P47746 whole entry): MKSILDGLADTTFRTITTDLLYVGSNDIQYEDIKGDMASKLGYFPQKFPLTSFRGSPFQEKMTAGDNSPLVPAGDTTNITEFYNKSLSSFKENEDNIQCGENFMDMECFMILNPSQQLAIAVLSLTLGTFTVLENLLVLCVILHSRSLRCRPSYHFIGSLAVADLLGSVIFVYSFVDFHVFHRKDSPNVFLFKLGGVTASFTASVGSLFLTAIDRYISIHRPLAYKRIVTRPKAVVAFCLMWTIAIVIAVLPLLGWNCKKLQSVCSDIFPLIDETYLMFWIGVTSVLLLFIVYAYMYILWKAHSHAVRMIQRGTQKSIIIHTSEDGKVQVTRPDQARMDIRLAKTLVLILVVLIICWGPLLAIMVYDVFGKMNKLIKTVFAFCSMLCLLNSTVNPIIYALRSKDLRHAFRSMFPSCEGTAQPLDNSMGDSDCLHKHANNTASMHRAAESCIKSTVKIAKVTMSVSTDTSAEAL

[5] = molecular target: T1, CB1R; format: cell-based; settings: HEK293A, 10 min
[6] = molecular target: T2, CB1R; format: cell-based; settings: Neuro2a, 10 min; remark: listed apart in the source
[7] = molecular target: T1, CB1R; experiment: cell-based; format: cell-based; remark: listed apart in the source
[8] = molecular target: T1, CB1R; experiment: [3H]SR141716A equilibrium binding, hCB1R CHO cell membranes
[9] = molecular target: T1, CB1R; experiment: cell-based
[10] = test system: CB1R; format: cell-based; settings: mean of data for the pathway (Table 2), all cells and orthosteric ligands
[11] = test system: CB1R; format: cell-based; settings: mean of data for the pathway (Table 3), all cells and orthosteric ligands
[12] = test system: hCB1R; experiment: Operational model bias analysis, HEK293A cells; format: cell-based, human; settings: HEK293A; for ΔΔlog R β-arrestin1/cAMP / ΔΔlog R β-arrestin1/pPLCβ3: reference 2-AG + GAT100
[13] = molecular target: T2, CB1R; experiment: Operational model bias analysis, Neuro2a cells; format: cell-based; settings: for ΔΔlog R β-arrestin1/pPLCβ3: reference 2-AG + GAT100
[14] = molecular target: T2, CB1R; settings: STHdh^Q7/Q7; 1 μM + 500 nM CP55,940
[15] = test system: CB1R
[16] = test system: CB1R; settings: cited from earlier work
[17] = molecular target: T2, CB1R; experiment: Operational model bias analysis, STHdh^Q7/Q7 cells; settings: STHdh^Q7/Q7
[18] = 500 nM 2-AG + 1 nM-10 μM allosteric modulator
[19] = 500 nM AEA + 1 nM-10 μM allosteric modulator
[20] = 500 nM CP55,940 + 1 nM-10 μM allosteric modulator

T1 sequence (P21554 whole entry): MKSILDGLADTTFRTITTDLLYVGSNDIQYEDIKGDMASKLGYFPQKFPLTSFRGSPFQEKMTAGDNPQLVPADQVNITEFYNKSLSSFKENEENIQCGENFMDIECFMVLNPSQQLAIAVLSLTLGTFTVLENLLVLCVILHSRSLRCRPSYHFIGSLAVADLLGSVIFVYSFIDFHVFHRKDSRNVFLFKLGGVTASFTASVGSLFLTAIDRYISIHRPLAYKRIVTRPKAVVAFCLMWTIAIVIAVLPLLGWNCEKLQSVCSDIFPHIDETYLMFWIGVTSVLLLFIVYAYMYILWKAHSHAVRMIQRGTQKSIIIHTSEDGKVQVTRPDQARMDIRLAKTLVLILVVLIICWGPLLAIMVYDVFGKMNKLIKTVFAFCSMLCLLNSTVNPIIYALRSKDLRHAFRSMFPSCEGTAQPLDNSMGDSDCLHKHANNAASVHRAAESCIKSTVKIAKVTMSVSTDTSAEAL

CCc1c(C(=O)NCCc2ccc(N3CCCCC3)cc2)[nH]c2ccc(Cl)cc12 [Org27569, 5-chloro-3-ethyl-N-(4-(piperidin-1-yl)phenethyl)-1H-indole-2-carboxamide]
Emax (BRETEff), 2-AG ([1]; 1 nM-10 μM 2-AG + 1 μM NAM): 0.49 ± 0.03
Emax (BRETEff), AEA ([1]; 1 nM-10 μM AEA + 1 μM NAM): 0.49 ± 0.02
Emax (BRETEff), CP55,940 ([1]; 1 nM-10 μM CP55,940 + 1 μM NAM): 0.58 ± 0.03
Emax (BRETEff), 2-AG ([2]; 1 nM-10 μM 2-AG + 1 μM NAM): 0.47 ± 0.03
Emax (BRETEff), AEA ([2]; 1 nM-10 μM AEA + 1 μM NAM): 0.44 ± 0.02
Emax (BRETEff), CP55,940 ([2]; 1 nM-10 μM CP55,940 + 1 μM NAM): 0.60 ± 0.05
Emax pPLCβ3/Total PLCβ3, 2-AG ([3]; HEK293A, 1 nM-10 μM 2-AG + 1 μM NAM, 10 min): 0.52 ± 0.02
Emax pPLCβ3/Total PLCβ3, AEA ([3]; HEK293A, 1 nM-10 μM AEA + 1 μM NAM, 10 min): 0.49 ± 0.02
Emax pPLCβ3/Total PLCβ3, CP55,940 ([3]; HEK293A, 1 nM-10 μM CP55,940 + 1 μM NAM, 10 min): 0.60 ± 0.03
IC50 ([3]; IC50, PLCβ3 phosphorylation, CP55,940): 151 nM
Emax pPLCβ3/Total PLCβ3, 2-AG ([4]; 1 nM-10 μM 2-AG + 1 μM NAM): 0.53 ± 0.02
Emax pPLCβ3/Total PLCβ3, AEA ([4]; 1 nM-10 μM AEA + 1 μM NAM): 0.52 ± 0.02 ^††
Emax pPLCβ3/Total PLCβ3, CP55,940 ([4]; 1 nM-10 μM CP55,940 + 1 μM NAM): 0.58 ± 0.02 ^††
Emax pERK1/2/Total ERK1/2, 2-AG ([5]; 1 nM-10 μM 2-AG + 1 μM NAM): 0.46 ± 0.02
Emax pERK1/2/Total ERK1/2, AEA ([5]; 1 nM-10 μM AEA + 1 μM NAM): 0.42 ± 0.02
Emax pERK1/2/Total ERK1/2, CP55,940 ([5]; 1 nM-10 μM CP55,940 + 1 μM NAM): 0.40 ± 0.01
Emax pERK1/2/Total ERK1/2, 2-AG ([6]; 1 nM-10 μM 2-AG + 1 μM NAM): 0.48 ± 0.03
Emax pERK1/2/Total ERK1/2, AEA ([6]; 1 nM-10 μM AEA + 1 μM NAM): 0.44 ± 0.02
Emax pERK1/2/Total ERK1/2, CP55,940 ([6]; 1 nM-10 μM CP55,940 + 1 μM NAM): 0.43 ± 0.02
Emax, cAMP (pathway ligand bias summary) [7]: 0.31 ± 0.04 ^†
effect on cAMP levels in the absence of orthosteric agonists (inverse agonism) ([7]; HEK-CRE, 10 μM forskolin + 1 nM to 10 μM compound alone, 4 h): increased cAMP levels significantly
IC50 ([7]; IC50, cAMP, CP55,940): 969 nM
Emax ([7]; read-out: Emax (% cAMP inhibition), CP55,940): 25.7 ± 1.64%
EC50 [8]: 2520 nM
Emax ([8]; read-out: Emax, [3H]SR141716A binding): -17.6%
IC50 [9]: 236 nM
Emax, β-arrestin1 (pathway ligand bias summary) ([9]; mean of data for the pathway (Table 1), all cells and orthosteric ligands): 0.50 ± 0.02
Emax, PLCβ3 (pathway ligand bias summary) [10]: 0.55 ± 0.01
Emax, ERK (pathway ligand bias summary) [11]: 0.45 ± 0.01
BF β-arrestin1/cAMP [12, 18]: 0.2
BF β-arrestin1/pERK1/2 [12, 18]: 0.1
BF β-arrestin1/pPLCβ3 [12, 18]: 0.1
ΔΔlog R β-arrestin1/cAMP [12, 18]: –0.6 ± 0.8
ΔΔlog R β-arrestin1/pPLCβ3 [12, 18]: –1.0 ± 0.9
BF β-arrestin1/cAMP [12, 19]: 0.1
BF β-arrestin1/pERK1/2 [12, 19]: 15.8
BF β-arrestin1/pPLCβ3 [12, 19]: 0.03
ΔΔlog R β-arrestin1/cAMP [12, 19]: –1.2 ± 0.6
ΔΔlog R β-arrestin1/pPLCβ3 [12, 19]: –1.6 ± 0.6
BF β-arrestin1/cAMP [12, 20]: 1.0
BF β-arrestin1/pERK1/2 [12, 20]: 4.0
BF β-arrestin1/pPLCβ3 [12, 20]: 0.5
ΔΔlog R β-arrestin1/cAMP [12, 20]: 0.0 ± 0.6
ΔΔlog R β-arrestin1/pPLCβ3 [12, 20]: –0.3 ± 0.1
BF β-arrestin1/pERK1/2 [13, 18]: 3.2
BF β-arrestin1/pPLCβ3 [13, 18]: 0.6
ΔΔlog R β-arrestin1/pPLCβ3 [13, 18]: –0.2 ± 0.2
BF β-arrestin1/pERK1/2 [13, 19]: 1.6
BF β-arrestin1/pPLCβ3 [13, 19]: 4.0
ΔΔlog R β-arrestin1/pPLCβ3 [13, 19]: 0.6 ± 0.2
BF β-arrestin1/pERK1/2 [13, 20]: 3.2
BF β-arrestin1/pPLCβ3 [13, 20]: 4.0
ΔΔlog R β-arrestin1/pPLCβ3 [13, 20]: 0.6 ± 0.4
effect on CP55,940-induced CB1R internalization (fraction of CB1R at the plasma membrane) [14]: reversed this effect
Emax, 2-AG (probe dependence summary) ([15]; mean of data for 2-AG (Tables 1-4)): 0.49 ± 0.02
Emax, AEA (probe dependence summary) ([15]; mean of data for AEA (Tables 1-4)): 0.45 ± 0.03
Emax, CP55,940 (probe dependence summary) ([15]; mean of data for CP55,940 (Tables 1-4)): 0.50 ± 0.04
Emax, HEK293A (cell dependence summary) ([15]; mean of data for HEK293A (Tables 1-3)): 0.49 ± 0.02
Emax, Neuro2a (cell dependence summary) ([15]; mean of data for Neuro2a (Tables 1-3)): 0.50 ± 0.02
Emax, STHdh^Q7/Q7 (cell dependence summary) ([15]; mean of data for STHdh^Q7/Q7 (Tables 1-3)): 0.51 ± 0.02
effect on CP55,940 equilibrium binding by CB1R [16]: increase CP55,940 equilibrium binding
BF β-arrestin1/pERK1/2 [17, 18]: 0.5
BF β-arrestin1/pPLCβ3 [17, 18]: 0.3
BF β-arrestin1/pERK1/2 [17, 19]: 1.3
BF β-arrestin1/pPLCβ3 [17, 19]: 0.2
BF β-arrestin1/pERK1/2 [17, 20]: 0.3
BF β-arrestin1/pPLCβ3 [17, 20]: 0.8
